# How the values were obtained:
# NIH3T3 cells = assay: DNA damage, γH2AX foci immunofluorescence, NIH3T3; assay type: cell-based
# Procedure: (§1) To test the ability of C60-ser to protect against radiation injury, the level of DNA damage in response to radiation was analyzed by measuring γH2AX. The H2AX protein becomes phosphorylated into γH2AX as a result of DNA double strand breaks. This allows for the visualization and quantification of double strand break foci through immunofluorescence analysis. Cells were plated on 8 chamber slides and incubated overnight before C60-ser treatment. Three sets of slides per cell line (to be irradiated with 0, 0.5, and 1 Gy) were prepared, with the top 4 rows used as a control and the bottom 4 rows incubated with 100 μM C60-ser. Cells were incubated with C60-ser for 2 hours before irradiation with a clinical Proteus One proton machine (Ion Beam Applications, Louvain-la-Neuve, Belgium). A 230 MeV mono-energetic unmodulated broad beam of large field size that encompassed all slides containing the cells was used to deliver the 0.5 and 1 Gy doses. White solid water slabs (IBA Dosimetry, Germany) provided the necessary phantom material to place the cells at the desired 8 cm depth with an LET of approximately 1.7 keV/μm. After irradiation, cells were incubated at 37° C. with 5% CO2 for 30 minutes before washing and fixing the cells with 1% formaldehyde. The cells were permeabilized with 1% NP-40 and incubated with 5% BSA to block unspecific antibody bonding. The cells were then incubated with γH2AX primary antibody followed by a secondary antibody. Mounting media containing DAPI was used before applying cover slips and sealing the samples. Cells were imaged on an Olympus IX71 trinocular inverted fluorescence phase contrast microscope with a 40× objective. The resulting images were analyzed by ImageJ, and the foci were counted.
# N2A cells [1] = assay: Classic clonogenics survival assay of irradiated cells, N2A; assay type: cell-based
# Procedure: A classic clonogenics assay was performed to further test the ability of C60-ser to protect against radiation damage. After irradiation, a fraction of the cells will undergo radiation-induced death, whereas other cells remain metabolically active and are able to undergo a few cycles of mitosis before meeting their endpoint. Since many cells remain metabolically activity, classic toxicity measurements such as an MTT measurement are not able to catch the full effects of radiation damage. In contrast, a classic clonogenics assay, which plates a known number of cells and tracks development of colonies, is able to track the number of cells that maintain their clonogenicity. With increasing radiation doses, the fraction of cells that maintain clonogenicity decrease. Therefore, a successful radioprotectant is able to increase the number of surviving colonies compared to the control at the same radiation doses.
# N2A, NIH3T3, and HepG2 cells were plated in 35 mm dishes and treated with 100 μM C60-ser for 2 hours prior to washing with PBS and irradiation at 0, 2, 4, and 6 Gy with a 230 MeV proton beam. Following radiation, a known number of cells were re-plated in six well plates and allowed to grow in culture for 8-14 days to allow for colony formation. To account for cell death with higher radiation doses, a larger number of cells were plated with increasing doses received. […]
# [2] = test system: HCT116 colorectal cancer cells; assay: Clonogenic assay of irradiated HCT116 colorectal cancer cells; assay type: cell-based; conditions: HCT116, 100 μM 2 hours, 0-6 Gy
# Procedure: A clonogenic assay of HCT116 colorectal cancer cells was conducted. 2×10^6 cells were treated with 100 μM C60-ser for 2 hours and exposed to 0-6 Gy of radiation.
# N2A cells [3] = assay: DNA damage, γH2AX foci immunofluorescence, N2A; assay type: cell-based
# Procedure: as §1
# [4] = Zeta-potential of C60-ser aggregates; assay type: physicochemical; conditions: 0.1 mg/mL and 10 mg/mL in deionized water
# Procedure: Analysis was performed using a ZEN 3600 Malvern Zetasizer (Worcestershire, UK) equipped with a 633 nm laser. The electrophoretic mobilities (p) of the aggregates was measured by applying an electric field to the C60-ser solution and measuring the speed and direction of the aggregate's motion. Zeta-potentials were calculated using the solvent viscosity (n) and the water dielectric constant (e). To perform the measurements, C60-ser molecules were dissolved in deionized water, and the solution electrical conductivity was adjusted to 25-50 μS/cm by addition of small amounts of neutral 2-(N-morpholino)ethanesulfonic acid (MES) buffer. The zeta-potential of C60-ser aggregates was measured at a concentration of 0.1 mg/mL in deionized water (FIG. 5A) and 10 mg/mL in deionized water (FIG. 5B).
smiles,measurement,setting,value
"O=C(NC(CO)CO)C1(C(=O)NC(CO)CO)C23c4c5c6c7c8c4-c4c2c2c9c%10c4C4%11c%12c-%10c%10c%13c%14c%12-c%12c(c-7c7c%15c%12C%14%12C(C(=O)NC(CO)CO)(C(=O)NC(CO)CO)C%12%14c%12c%16c%17c%18c(c%12-%15)C7%12C(C(=O)NC(CO)CO)(C(=O)NC(CO)CO)C6%12c6c-5c5c7c(c6-%18)C%176C(C(=O)NC(CO)CO)(C(=O)NC(CO)CO)C6%12c6c-7c(c-2c2c6-c6c%12c-%16c%14c-%13c6C%106C(C(=O)NC(CO)CO)(C(=O)NC(CO)CO)C926)C513)C84C%11(C(=O)NC(CO)CO)C(=O)NC(CO)CO (stereo not shown) [C60-ser, C60-serinol]",γH2AX foci vs control,"NIH3T3 cells; NIH3T3, 100 μM 2 hours before 0.5 Gy proton radiation","trend towards reduction in total foci formed, but it was not statistically significant"
same,γH2AX foci vs control,"NIH3T3 cells; NIH3T3, 100 μM 2 hours before 1 Gy proton radiation",significant decrease in the number of foci
same,γH2AX foci vs control,"NIH3T3 cells; NIH3T3, 100 μM 2 hours, absence of radiation",no significant different in foci expression
same,fraction of surviving cells,N2A cells [1]; 100 μM 2 hours before irradiation,increased the fraction of surviving cells
same,dose enhancement factor (DEF) at 20% surviving fraction,"N2A cells [1]; 100 μM 2 hours, 0-6 Gy 230 MeV proton, one set of clonogenics",0.91
same,surviving fraction of cells vs control,[2],no difference in the surviving fraction of cells
same,γH2AX foci vs control,N2A cells [3]; 100 μM 2 hours before 0.5 Gy proton radiation,"trend towards reduction in total foci formed, but it was not statistically significant"
same,γH2AX foci vs control,N2A cells [3]; 100 μM 2 hours before 1 Gy proton radiation,significant decrease in the number of foci
same,γH2AX foci vs control,"N2A cells [3]; 100 μM 2 hours, absence of radiation",no significant different in foci expression
same,zeta-potentials of aggregates,[4],close to zero
